Results reported in EP0662819B1, “AN ANTIVIRALLY ACTIVE PHARMACEUTICAL OIL-IN-WATER EMULSION CONTAINING 9-[(2-HYDROXYETHOXY)METHYL]GUANINE (ACYCLOVIR) OR A SALT OR ESTER THEREOF” (A/S GEA Farmaceutisk Fabrik, priority 1992, dated 1994).
In brackets after ≈: the same amount, converted by molar mass.

Experiment: Solubility of acyclovir in glycerol formal/water and glycerol formal/propylene glycol/water mixtures
Format: physicochemical
Details: room temperature
Method: A surplus of acyclovir is added to glycerol formal/water mixtures and glycerol formal/propylene glycol/water mixtures at room temperature, and the mixtures are then stirred for 2 hours and filtered. Subsequent to adequate dilution with 0.1 N NaOH the solutions are spectrophotometrically measured at 260 nm against 0.1 N NaOH. A 0.01% solution of acyclovir in 0.1 N NaOH is used as standard.

Nc1nc2c(ncn2COCCO)c(=O)[nH]1 [acyclovir, 9-[(2-hydroxyethoxy)methyl]guanine]
solubility at 2 h (0 percent by volume glycerol formal in water, stirred 2 hours): 1170 µg/mL (≈ 5.2 mM) | solubility at 2 h (10% glycerol formal in water, organic solvent or mixture, 10 percent by volume glycerol formal in water, stirred 2 hours): 1630 µg/mL (≈ 7.24 mM) | solubility at 2 h (25% glycerol formal in water, organic solvent or mixture, 25 percent by volume glycerol formal in water, stirred 2 hours): 2640 µg/mL (≈ 11.7 mM) | solubility at 2 h (50% glycerol formal in water, organic solvent or mixture, 50 percent by volume glycerol formal in water, stirred 2 hours): 4370 µg/mL (≈ 19.4 mM) | solubility at 2 h (60% glycerol formal in water, organic solvent or mixture, 60 percent by volume glycerol formal in water, stirred 2 hours): 4670 µg/mL (≈ 20.7 mM) | solubility at 2 h (75% glycerol formal in water, organic solvent or mixture, 75 percent by volume glycerol formal in water, stirred 2 hours): 4150 µg/mL (≈ 18.4 mM) | solubility at 2 h (90% glycerol formal in water, organic solvent or mixture, 90 percent by volume glycerol formal in water, stirred 2 hours): 2970 µg/mL (≈ 13.2 mM) | solubility at 2 h (glycerol formal/water 40/20, organic solvent or mixture, Glycerol formal/propylene glycol/water 40/0/20 g/g/ml): 5730 µg/mL (≈ 25.4 mM) | solubility at 2 h (organic solvent or mixture, 100 percent by volume glycerol formal, stirred 2 hours): 3270 µg/mL (≈ 14.5 mM) | solubility at 2 h (organic solvent or mixture, Glycerol formal/propylene glycol/water 11/29/20 g/g/ml): 4710 µg/mL (≈ 20.9 mM) | solubility at 2 h (organic solvent or mixture, Glycerol formal/propylene glycol/water 20/20/20 g/g/ml): 4600 µg/mL (≈ 20.4 mM) | solubility at 2 h (organic solvent or mixture, Glycerol formal/propylene glycol/water 30/10/20 g/g/ml): 5200 µg/mL (≈ 23.1 mM) | solubility at 2 h (propylene glycol/water 40/20, organic solvent or mixture, Glycerol formal/propylene glycol/water 0/40/20 g/g/ml): 3440 µg/mL (≈ 15.3 mM)
